Data set [1] has as its system mouse. The following applies: Subchronic oral toxicity in rodents, b6c3f1, Feed, dose end: 13 week.
The test system of data set [2] is mouse. The following applies: Fertility (Segment I); cd1; Oral; Gavage/Intubation; dose end: 1 generation; group: parental; systemic / pathology gross / sperm measure / sperm morphology.
In data set [3] the test system is rat. To be noted: Subchronic oral toxicity in rodents, fischer, Feed, dose end: 13 week.
For data set [4], the system named is rat. The following applies: Multigenerational reproductive toxicity study, Sprague-Dawley, Oral, Feed, dose end: 1 generation.
In data set [5] the test system is rat. To be noted: Sub-acute dermal toxicity, other, Topical, dose end: 28 day, group: systemic.
Data set [6] has as its system rat. To be noted: Subchronic oral toxicity in rodents, sprague dawley, Feed, dose end: 3 month, group: systemic.
In data set [7] the test system is rat. To be noted: Multigenerational reproductive toxicity study, sprague dawley, Oral, Feed, dose end: 2 generation.
In data set [8] the test system is rat. To be noted: Subchronic inhalation toxicity, other, Nose-Only, dose end: 90 day, group: systemic, systemic / pathology microscopic / nose / [other] + systemic / pathology microscopic / nose / degeneration + systemic / pathology ….
A further data set concerns rabbit. To be noted: Sub-acute dermal toxicity, new zealand white, Topical, dose end: 21 day, group: systemic.
The test system of data set [9] is rat. To be noted: Prenatal developmental toxicity study, sprague dawley, Oral, Gavage/Intubation, dose end: 15 GD.
Data set [10] has as its system rat. The following applies: Prenatal developmental toxicity study, sprague dawley, Oral, Gavage/Intubation, dose end: 16 GD, group: maternal.
Data set [11] relates to rat. To be noted: Subchronic oral toxicity in rodents, wistar, Gavage/Intubation, dose end: 90 day, group: systemic.
The test system of data set [12] is rat. To be noted: Subchronic oral toxicity in rodents, wistar, Gavage/Intubation, dose end: 90 day, group: systemic. The source holds these as a separate data set.
Data set [13] relates to rat. To be noted: Subchronic dermal toxicity, sprague dawley, Topical, dose end: 14 week, group: systemic.
[14] abbreviates: group: maternal, reproductive / reproductive performance / estrous cycle / length.
Setting [15] is: group: systemic, systemic / in life observation / body weight / body weight + systemic / in life observation / clinical signs / drooping eyelids (ptosis) + ….
Where [16] appears, read: group: systemic, systemic / clinical chemistry / alkaline phosphatase (alp/alk) / alkaline phosphatase (alp/alk) + systemic / clinical chemistry / bile acids….
[17] abbreviates: group: offspring, systemic / in life observation / body weight / offspring (pup) weight + systemic / in life observation / clinical signs / reduced activity.
Setting [18] is: group: parental, systemic / clinical chemistry / thyroid stimulating hormone (thyrotropin) (tsh) / thyroid stimulating hormone (=thyrotropin) (tsh) + ….
Where [19] appears, read: group: parental, systemic / in life observation / clinical signs / nasal discharge + systemic / in life observation / body weight / body weight + systemic / ….
Where [20] appears, read: group: reproductive, reproductive / offspring survival early / dead fetuses / dead fetuses + reproductive / offspring survival early / litter size / litter size….
Setting [21] is: group: reproductive, reproductive / reproductive performance / reproductive performance other / NOS + reproductive / reproductive performance / pregnancy index….
Where [22] appears, read: systemic / hematology / leukocyte (wbc) count differential / leukocyte (wbc) + systemic / hematology / neutrophils / neutrophils + systemic….
[23] abbreviates: systemic / pathology microscopic / thyroid gland / altered colloid + systemic / pathology microscopic / thyroid gland / hypertrophy.
Where [24] appears, read: systemic / clinical chemistry / cholesterol / cholesterol + systemic / clinical chemistry / phosphorus / phosphorus + systemic / pathology ….
Setting [25] is: group: offspring, developmental / developmental malformation / trunk / umbilical hernia + developmental / offspring survival late / [other] / [other] + ….
[26] abbreviates: group: parental, systemic / in life observation / clinical signs / body cold to touch + systemic / in life observation / clinical signs / drooping eyelids (….
Setting [27] is: group: parental, systemic / pathology microscopic / thyroid gland / colloid content + systemic / pathology microscopic / thyroid gland / hypertrophy + ….
The mark [28] stands for this setting: group: reproductive, reproductive / reproductive performance / dystocia / dystocia + reproductive / reproductive performance / postimplantation loss / ….
[29] abbreviates: systemic / clinical chemistry / glucose / glucose.
The mark [30] stands for this setting: systemic / in life observation / clinical signs / desquamation + systemic / in life observation / clinical signs / erythema + systemic / in ….
Where [31] appears, read: group: developmental, developmental / developmental malformation / bone / short supernumerary + developmental / developmental malformation / eye / anophthalmia + ….
Setting [32] is: group: maternal, systemic / in life observation / body weight / body weight gain + systemic / in life observation / food consumption / food consumption.
[33] abbreviates: group: maternal, systemic / in life observation / body weight / body weight gain + systemic / in life observation / food consumption / food consumption + ….
Where [34] appears, read: systemic / in life observation / clinical signs / salivation + systemic / in life observation / food consumption / food consumption.
Setting [35] is: systemic / pathology microscopic / pharynx / lesion(s) (nos).
[36] abbreviates: systemic / in life observation / clinical signs / righting ability.
The mark [37] stands for this setting: systemic / in life observation / clinical signs / righting ability + systemic / in life observation / body weight / body weight + systemic….
[38] abbreviates: systemic / pathology microscopic / bone marrow / hyperplasia.
The mark [39] stands for this setting: systemic / pathology microscopic / bone marrow / hyperplasia + systemic / hematology / mean corpuscular (cell) volume (mcv) / mean ….

The structures appear in SMILES notation. Bounds are passed on as bounds.

On to `NC(=Nc1ccccc1)Nc1ccccc1` [1,3-Diphenylguanidine], for which the LEL with mouse [1] (setting [14]) amounted to 577 mg/kg/day; with mouse [1] (group: systemic, systemic / organ weight / liver / relative to body weight), 75 mg/kg/day; with mouse [2], 16 mg/kg/day; with rat [3] (setting [14]) it was 49 mg/kg/day; with rat [3] (setting [16]), 17 mg/kg/day. Moreover, the LOAEL in the data set with mouse [1] (setting [14]) is more than 577 mg/kg/day; in the data set with mouse [1] (group: systemic, systemic / in life observation / body weight / body weight + systemic / in life observation / clinical signs / drooping eyelids (ptosis)), 231 mg/kg/day; in the data set on mouse [2] it was more than 16 mg/kg/day; in the data set with rat [3] (setting [14]), more than 184 mg/kg/day; in the data set with rat [3] (setting [16]), 95 mg/kg/day. The NEL in the data set on mouse [1] (setting [14]) was 285 mg/kg/day; with mouse [1] (setting [15]), 38 mg/kg/day; with mouse [2], 4 mg/kg/day; in the data set with rat [3] (setting [14]), 32 mg/kg/day; with rat [3] (setting [16]), less than 17 mg/kg/day. Further, the NOAEL with mouse [1] (setting [14]) was not below 577 mg/kg/day; in the data set with mouse [1] (setting [15]) it was 114 mg/kg/day; in the data set with mouse [2], not below 16 mg/kg/day; in the data set with rat [3] (setting [14]) it was not below 184 mg/kg/day; in the data set with rat [3] (setting [16]), 49 mg/kg/day.
As to `Cc1ccc(S(=O)(=O)C(I)I)cc1` [Diiodomethyl 4-methylphenyl sulfone], the LEL in the data set on rat [4] (setting [17]) was found to be 80 mg/kg/day; in the data set with rat [4] (setting [19]), 20 mg/kg/day; in the data set on rat [4] (setting [20]), 80 mg/kg/day; in the data set with rat [5] (setting [23]), 20 mg/kg/day; in the data set with rat [6] (systemic / in life observation / clinical signs / scabbing), 20 mg/kg/day; in the data set with rat [7] (group: offspring, systemic / in life observation / body weight / offspring (pup) weight + developmental / offspring survival late / viability index / …) it was 10 mg/kg/day. For the same compound, the LEL in the data set on rat [7] (setting [27]) was 2.5 mg/kg/day; with rat [7] (setting [28]) it was 40 mg/kg/day; in the data set on rat [8], 0.41 ppm. In addition, the LOAEL in the data set on rat [4] (setting [17]) is more than 200 mg/kg/day; in the data set with rat [4] (setting [18]), more than 200 mg/kg/day; with rat [4] (setting [21]), more than 200 mg/kg/day; in the data set with rat [5] (setting [22]), more than 500 mg/kg/day; with rat [6] (setting [24]) it was 80 mg/kg/day; in the data set with rat [7] (setting [25]), more than 40 mg/kg/day. The LOAEL is more than 40 mg/kg/day with rat [7] (setting [26]), more than 40 mg/kg/day in the data set on rat [7] (setting [28]) and more than 1.74 ppm in the data set on rat [8]. In addition, the NEL is 20 mg/kg/day in the data set on rat [4] (setting [17]); less than 20 mg/kg/day with rat [4] (setting [19]); 20 mg/kg/day in the data set on rat [4] (setting [20]); less than 20 mg/kg/day in the data set with rat [5] (setting [23]); 5 mg/kg/day with rat [6] (setting [24]); 2.5 mg/kg/day in the data set on rat [7] (setting [25]). For the same compound, the NEL in the data set with rat [7] (setting [27]) is less than 2.5 mg/kg/day; in the data set on rat [7] (setting [28]) it was 10 mg/kg/day; in the data set on rat [8], 0.0579 ppm. The NOAEL is not below 200 mg/kg/day in the data set on rat [4] (setting [17]); not below 200 mg/kg/day in the data set with rat [4] (setting [18]); not below 200 mg/kg/day in the data set with rat [4] (setting [21]); not below 500 mg/kg/day in the data set on rat [5] (setting [22]); 20 mg/kg/day in the data set on rat [6] (setting [24]); not below 40 mg/kg/day with rat [7] (setting [25]). In addition, the no observed adverse effect level (NOAEL) with rat [7] (setting [26]) is not below 40 mg/kg/day; in the data set on rat [7] (setting [28]) it was not below 40 mg/kg/day; with rat [8], not below 1.74 ppm.
As for `O=S(=O)(C(Cl)(Cl)Cl)C(Cl)(Cl)Cl` [Bis(trichloromethyl)sulfone], the LEL with rabbit (setting [29]) amounted to 0.8 mg/kg/day; in the data set on rat [9] (setting [31]), 50 mg/kg/day; with rat [9] (setting [32]), 10 mg/kg/day. Also, the NEL in the data set on rabbit (setting [29]) is less than 0.8 mg/kg/day; with rat [9] (setting [31]) it was 10 mg/kg/day; in the data set on rat [9] (setting [33]), 2 mg/kg/day. The LOAEL in the data set with rabbit (setting [30]) came out at 5 mg/kg/day; with rat [9] (setting [31]), 50 mg/kg/day; in the data set on rat [9] (setting [32]) it was 10 mg/kg/day. For the same compound, the NOAEL with rabbit (setting [30]) was 2 mg/kg/day; with rat [9] (setting [31]) it was 10 mg/kg/day; with rat [9] (setting [33]), 2 mg/kg/day.
For `CCCCCCCCCCCCN(CCCN)CCCN` [1,3-Propanediamine, N-(3-aminopropyl)-N-dodecyl-], the LEL in the data set on rat [10] (systemic / in life observation / clinical signs / salivation) is 50 mg/kg/day; with rat [11] (setting [35]), 5 mg/kg/day; in the data set with rat [12] (setting [36]), 10 mg/kg/day; with rat [13] (setting [39]), 5 mg/kg/day. For the same compound, the LOAEL was more than 200 mg/kg/day with rat [10] (setting [34]), 90 mg/kg/day with rat [11] (systemic / pathology microscopic / kidney / basophilia + systemic / pathology microscopic / kidney / dilatation), 10 mg/kg/day in the data set on rat [12] (setting [36]) and 5 mg/kg/day with rat [13] (setting [38]). The NEL is 25 mg/kg/day in the data set with rat [10] (setting [34]), less than 5 mg/kg/day in the data set on rat [11] (setting [35]), 5 mg/kg/day with rat [12] (setting [37]) and less than 5 mg/kg/day in the data set with rat [13] (setting [39]). The NOAEL with rat [10] (setting [34]) is not below 200 mg/kg/day; in the data set with rat [12] (setting [37]), 5 mg/kg/day; in the data set with rat [13] (setting [38]) it was less than 5 mg/kg/day.

The values are drawn from EPA's ToxRefDB 2.
